Assay [1] concerns Aβ42. Kind of assay: Screening for γ-secretase-modulating activity: Aβ42 in supernatant of SKNBE2 cells carrying hAPP 695 wild type (Alphalisa). Conditions: overnight incubation, Alphalisa on supernatant. In kind it is cell-based, human. The gist of the method: (§1)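 SKNBE2 human neuroblastoma cells expressing wild-type hAPP 695 (10^4/well) were incubated overnight at 37 °C, 5% CO2 with compound at several concentrations. Supernatant Aβ42 and Aβtotal measured by AlphaLISA sandwich immunoassays; IC50 from 4-parameter fit of percent of untreated control versus log concentration.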

Assay [2] concerns Aβtotal. Kind of assay: Screening for γ-secretase-modulating activity: Aβtotal in supernatant of SKNBE2 cells carrying hAPP 695 wild type (Alphalisa). In kind it is cell-based, human. To be noted: overnight incubation, Alphalisa on supernatant. In a few lines: as §1
For assay [3], the system named is Aβ42. The assay can be described thus: In vivo efficacy B-1a: brain soluble Aβ42 in non-transgenic rodents, ELISA. More on the design: species or system mouse. Conditions: dose 30 mg/kg oral dosing, brain soluble fraction, untreated animals (Ctrl) set at 100; for response vs control in vivo at 30 mg/kg: Mus musculus, po, read-out: Aβ42 (% vs Ctrl)_Mean. The text has this:
(§2) To determine whether acute administration of an Aβ42 lowering agent would reduce Aβ42 levels in vivo, non-transgenic rodents, e.g. mice or rats were used. Animals treated with the Aβ42 lowering agent were examined and compared to those untreated or treated with vehicle and brain levels of soluble Aβ42 and total Aβ were quantitated by standard techniques, for example, using ELISA. Treatment periods varied from hours (h) to days and were adjusted based on the results of the Aβ42 lowering once a time course of onset of effect could be established.
(§3) A typical protocol for measuring Aβ42 lowering in vivo is shown but it is only one of many variations that could be used to optimize the levels of detectable Aβ. For example, Aβ42 lowering compounds were formulated in 20% of Captisol® (a sulfobutyl ether of β-cyclodextrin) in water or 20% hydroxypropyl β cyclodextrin. The Aβ42 lowering agents were administered as a single oral dose or by any acceptable route of administration to overnight fasted animals. After 4 h, the animals were sacrificed and Aβ42 levels were analysed.
(§4) Blood was collected by decapitation and exsanguinations in EDTA-treated collection tubes. Blood was centrifuged at 1900 g for 10 minutes (min) at 4° C. and the plasma recovered and flash frozen for later analysis. The brain was removed from the cranium and hindbrain. The cerebellum was removed and the left and right hemisphere were separated. The left hemisphere was stored at −18° C. for quantitative analysis of test compound levels. The right hemisphere was rinsed with phosphate-buffered saline (PBS) buffer and immediately frozen on dry ice and stored at −80° C. until homogenization for biochemical assays.
(§5) Mouse brains from non-transgenic animals were resuspended in 8 volumes of 0.4% DEA (diethylamine)/50 mM NaCl containing protease inhibitors (Roche-11873580001 or 04693159001) per gram of tissue, e.g. for 0.158 g brain, add 1.264 mL of 0.4% DEA. All samples were homogenized in the FastPrep-24 system (MP Biomedicals) using lysing matrix D (MPBio #6913-100) at 6 m/s for 20 seconds. Homogenates were centrifuged at 20800×g for 5 min and supernatants collected. Supernatants were centrifuged at 221.300×g for 50 min. The resulting high speed supernatants were then transferred to fresh eppendorf tubes. Nine parts of supernatant were neutralized with 1 part 0.5 M Tris-HCl pH 6.8 and used to quantify Aβtotal and Aβ42.
(§6) To quantify the amount of Aβtotal and Aβ42 in the soluble fraction of the brain homogenates, Enzyme-Linked-Immunosorbent-Assays were used. Briefly, the standards (a dilution of synthetic Aβ1-40 and Aβ1-42, Bachem) were prepared in 1.5 mL Eppendorf tube in Ultraculture, with final concentrations ranging from 10000 to 0.3 pg/mL. The samples and standards were co-incubated with HRPO-labelled N-terminal antibody JRF/rAμ/2 for Aβ42 detection and with the biotinylated mid-domain antibody 4G8 for Aβtotal detection. 50 μl of conjugate/sample or conjugate/standards mixtures were then added to the antibody-coated plate (the capture antibodies selectively recognize the C-terminal end of Aβ42, antibody JRF/cAβ42/26, for Aβ42 detection and the N-terminus of AB, antibody JRF/rAβ/2, for Aβtotal detection). The plate was allowed to incubate overnight at 4° C. in order to allow formation of the antibody-amyloid complex. Following this incubation and subsequent wash steps the ELISA for Aβ42 quantification was finished by addition of Quanta Blu fluorogenic peroxidase substrate according to the manufacturer's instructions (Pierce Corp., Rockford, Ill.). A reading was performed after 10 to 15 min (excitation 320 nm/emission 420 nm).
In this model a Aβ42 lowering compared to untreated animals would be advantageous, in particular a Aβ42 lowering with at least 10%, more in particular a Aβ42 lowering with at least 20%.
The results are shown in Table 4 (dose 30 mg/kg oral dosing) (value for untreated animals as control (Ctrl) was set at 100): […]

The subject of assay [4] is Aβtotal. Kind of assay: In vivo efficacy B-1a/B-2a: brain soluble Aβtotal in non-transgenic rodents, ELISA. Also noted: species or system mouse. Conditions: dose 30 mg/kg oral dosing, brain soluble fraction, untreated animals (Ctrl) set at 100; for response vs control in vivo at 30 mg/kg: Mus musculus, po, 4 h, read-out: Aβtotal (% vs Ctrl)_Mean.
Excerpt: as §2, §3, §4, §5, §6
For Aβtotal detection, a Streptavidine-Peroxidase-Conjugate was added, followed 60 min later by an additional wash step and addition of Quanta Blu fluorogenic peroxidase substrate according to the manufacturer's instructions (Pierce Corp., Rockford, Ill.). A reading was performed after 10 to 15 min (excitation 320 nm/emission 420 nm). […]

Setting [5] is: Homo sapiens, SKNBE2, SKNBE2 human neuroblastoma cells carrying hAPP 695 wild type.
The mark [6] stands for this setting: SKNBE2 human neuroblastoma cells carrying hAPP 695 wild type.

Consider 14 molecules from patent US9115143B2, “Substituted indole derivatives as gamma secretase modulators” (Janssen Pharmaceuticals, Inc., priority 2011, dated 2015).

With `COc1c(C#N)ccc2[nH]c(-c3nc4n(n3)CCCC4c3ccccc3C(F)(F)F)cc12` (centres unmarked) [Compound 7, 4-methoxy-2-[5,6,7,8-tetrahydro-8-[2-(trifluoromethyl)phenyl][1,2,4]triazolo[1,5-a]pyridin-2-yl]-1H-indole-5-carbonitrile], the IC50 in assay [1] (setting [5]) was 35 nM; in assay [2] (setting [5]), more than 10000 nM. Besides, the results for the response vs control in vivo at 30 mg/kg in assay [3] and in assay [4] were 82% and 96%, respectively.
The matching figures for `Cc1cn(-c2ccc3[nH]c(-c4nc5n(n4)CCCC5c4ccccc4C(F)(F)F)cc3c2)cn1` (centres unmarked) [Compound 8, 5,6,7,8-tetrahydro-2-[5-(4-methyl-1H-imidazol-1-yl)-1H-indol-2-yl]-8-[2-(trifluoromethyl)phenyl]-[1,2,4]triazolo[1,5-a]pyridine]: 46 nM, more than 10000 nM, 41% and 86%.
For `Cc1cc(F)ccc1C1CCCn2nc(-c3cc4cc(C#N)ccc4[nH]3)nc21` (centres unmarked) [Compound 9, 2-[8-(4-fluoro-2-methylphenyl)-5,6,7,8-tetrahydro[1,2,4]triazolo[1,5-a]pyridin-2-yl]-1H-indole-5-carbonitrile], the IC50 in assay [1] (setting [6]) is 138 nM; in assay [2] (setting [5]) it was more than 10000 nM. The “Aβ42 (% vs Ctrl)_Mean” value in assay [3] (30 mg/kg) is on record as 66 % vs Ctrl. The “Aβtotal (% vs Ctrl)_Mean” value in assay [4] (30 mg/kg) was 97 % vs Ctrl.
`Cc1cc(F)ccc1C1CCCn2nc(-c3cc4cc(C#N)ccc4[nH]3)nc21` (centres unmarked) [Compound 10, 2-[8-(4-fluoro-2-methylphenyl)-5,6,7,8-tetrahydro[1,2,4]triazolo[1,5-a]pyridin-2-yl]-1H-indole-5-carbonitrile]: the IC50 in assay [1] (setting [6]) is 102 nM; in assay [2] (setting [6]), more than 10000 nM. In addition, the response vs control in vivo at 30 mg/kg in assay [3] turned out to be 72%; in assay [4], 105%.
`Cc1ccccc1C1CCCn2nc(-c3cc4cc(C#N)ccc4[nH]3)nc21` (centres unmarked) [Compound 12, 2-[5,6,7,8-tetrahydro-8-(2-methylphenyl)[1,2,4]triazolo[1,5-a]pyridin-2-yl]-1H-indole-5-carbonitrile]: the IC50 in assay [1] (setting [6]) was 126 nM; in assay [2] (setting [5]), more than 10000 nM. Further, the “Aβ42 (% vs Ctrl)_Mean” value in assay [3] (30 mg/kg) was determined as 94 % vs Ctrl. In assay [4] (30 mg/kg), the “Aβtotal (% vs Ctrl)_Mean” value is on record as 91 % vs Ctrl.
On to `Cc1ccccc1C1CCCn2nc(-c3cc4cc(C#N)ccc4[nH]3)nc21` (centres unmarked) [Compound 13, 2-[5,6,7,8-tetrahydro-8-(2-methylphenyl)[1,2,4]triazolo[1,5-a]pyridin-2-yl]-1H-indole-5-carbonitrile], for which the IC50 in assay [1] (setting [6]) was 72 nM; in assay [2] (setting [6]), more than 10000 nM. Further, the response vs control in vivo at 30 mg/kg was 79% in assay [3] and 80% in assay [4].
In the case of `N#Cc1ccc2[nH]c(-c3cn4c(n3)C(c3ccccc3Cl)CCC4)cc2c1` (centres unmarked) [Compound 16, 2-[8-(2-chlorophenyl)-5,6,7,8-tetrahydroimidazo[1,2-a]pyridin-2-yl]-1H-indole-5-carbonitrile], the IC50 was 112 nM in assay [1] (setting [5]) and more than 10000 nM in assay [2] (setting [5]). The response vs control in vivo at 30 mg/kg in assay [3] amounted to 74%; in assay [4] it was 95%.
The matching figures for `N#Cc1ccc2[nH]c(-c3nc4n(n3)CCCC4c3ccccc3C(F)(F)F)cc2c1` (centres unmarked) [Compound 18, 2-[5,6,7,8-tetrahydro-8-[2-(trifluoromethyl)phenyl][1,2,4]triazolo[1,5-a]pyridin-2-yl]-1H-indole-5-carbonitrile]: 117 nM, more than 10000 nM, 88% and 102%.
The matching figures for `N#Cc1ccc2[nH]c(-c3nc4n(n3)CCCC4c3cccc(OC(F)(F)F)c3)cc2c1` (centres unmarked) [Compound 20, 2-[5,6,7,8-tetrahydro-8-[3-(trifluoromethoxy)phenyl][1,2,4]triazolo[1,5-a]pyridin-2-yl]-1H-indole-5-carbonitrile]: 275 nM, more than 10000 nM, 93% and 113%.
The matching figures for `Cc1cn(-c2cc3cc(-c4nc5n(n4)CCCC5c4ccccc4C)[nH]c3cn2)cn1` (centres unmarked) [Compound 30, 5,6,7,8-tetrahydro-2-[5-(4-methyl-1H-imidazol-1-yl)-1H-pyrrolo[2,3-c]pyridin-2-yl]-8-(2-methylphenyl)-[1,2,4]triazolo[1,5-a]pyridine]: 52 nM, more than 10000 nM, 91% and 97%.
With `Cc1cn(-c2ccc3[nH]c(-c4nc5n(n4)CCOC5c4ccccc4C(F)(F)F)cc3c2)cn1` (centres unmarked) [Compound 37, 5,6-dihydro-2-[5-(4-methyl-1H-imidazol-1-yl)-1H-indol-2-yl]-8-[2-(trifluoromethyl)phenyl]-8H-[1,2,4]triazolo[5,1-c][1,4]oxazine], the figures for the IC50 in assay [1] (setting [5]) and in assay [2] (setting [5]) were 48 nM and 832 nM, respectively. The results for the response vs control in vivo at 30 mg/kg in assay [3] and in assay [4] were 64% and 93%, respectively.
On to `Cc1cn(-c2ccc3[nH]c(-c4nc5n(n4)CCOC5c4ccc(F)cc4C)cc3c2)cn1` (centres unmarked) [Compound 39, 8-(4-fluoro-2-methylphenyl)-5,6-dihydro-2-[5-(4-methyl-1H-imidazol-1-yl)-1H-indo-2-yl]-8H-[1,2,4]triazolo[5,1-c][1,4]oxazine], for which the IC50 in assay [1] (setting [6]) was determined as 38 nM; in assay [2] (setting [6]) it was 214 nM. In assay [3], the “Aβ42 (% vs Ctrl)_Mean” value is recorded as 74 % vs Ctrl. Besides, the “Aβtotal (% vs Ctrl)_Mean” value in assay [4] is reported as 99 % vs Ctrl.
On to `COc1c(C#N)ccc2[nH]c(-c3cn4c(n3)C(c3ccc(F)cc3C)OCC4)cc12` (centres unmarked) [Compound 46, 2-[8-(4-fluoro-2-methylphenyl)-5,6-dihydro-8H-imidazo[2,1-c][1,4]oxazin-2-yl]-4-methoxy-1H-indole-5-carbonitrile], for which the IC50 was 54 nM in assay [1] (setting [6]) and more than 10000 nM in assay [2] (setting [5]). Besides, the response vs control in vivo at 30 mg/kg in assay [3] was determined as 52%. For the same molecule, the “Aβtotal (% vs Ctrl)_Mean” value in assay [4] (30 mg/kg) is 88 % vs Ctrl.
For `COc1c(C#N)ccc2[nH]c(-c3cn4c(n3)C(c3ccc(F)cc3C)OCC4)cc12` (centres unmarked) [Compound 47, 2-[8-(4-fluoro-2-methylphenyl)-5,6-dihydro-8H-imidazo[2,1-c][1,4]oxazin-2-yl]-4-methoxy-1H-indole-5-carbonitrile], the IC50 in assay [1] (setting [6]) was 23 nM; in assay [2] (setting [6]), more than 10000 nM. The “Aβ42 (% vs Ctrl)_Mean” value in assay [3] (30 mg/kg) worked out at 45 % vs Ctrl. Besides, in assay [4] (30 mg/kg), the “Aβtotal (% vs Ctrl)_Mean” value is 117 % vs Ctrl.
